These results are taken from patent US9181255B2, “Fused heteroaromatic pyrrolidinones as SYK inhibitors” (Takeda Pharmaceutical Company Limited, priority 2009, dated 2015).

The structures appear in SMILES notation.

The experiment addresses SYK (Homo sapiens, UniProt P43405). As to the kind of experiment: SYK inhibition assay: SYK-mediated phosphorylation of FAM-labeled substrate (Caliper microfluidic). The experiment is classed as biochemical. Conditions: read-out: SYK Inhibition (pIC50) (converted).
In the case of `Cc1cccc(Nc2nc(N[C@@H]3CCCC[C@@H]3N(C)C)nc3c2C(=O)NC3)c1` [Example 37, 2-((1R,2S)-2-(Dimethylamino)cyclohexylamino)-4-(m-tolylamino)-6,7-dihydro-5H-pyrrolo[3,4-d]pyrimidin-5-one], the IC50 is 1 µM.

Take `CN[C@H]1CCCC[C@H]1Nc1nc2c(c(Nc3cccc(C)c3)n1)C(=O)NC2` [Example 38, 2-((1R,2S)-2-(Methylamino)cyclohexylamino)-4-(m-tolylamino)-6,7-dihydro-5H-pyrrolo[3,4-d]pyrimidin-5-one]: the IC50 was 0.631 µM.

As to `Cc1cccc(Nc2nc(N[C@@H]3CCCC[C@@H]3N)nc3c2C(=O)NC32CC2)c1` [Example 39, 2′-((1R,2S)-2-Aminocyclohexylamino)-4′-(m-tolylamino)spiro[cyclopropane-1,7′-pyrrolo[3,4-d]pyrimidin]-5′(6′H)-one], the IC50 is 3.16 µM.

Consider `Cc1cccc(Nc2nc(NCCN)nc3c2C(=O)NC3)c1` [Example 40, 2-(2-Aminoethylamino)-4-(m-tolylamino)-6,7-dihydro-5H-pyrrolo[3,4-d]pyrimidin-5-one], for which the IC50 was 0.251 µM.

In the case of `Cc1cccc(Nc2nc(NCC(C)(C)N)nc3c2C(=O)NC3)c1` [Example 41, 2-(2-Amino-2-methylpropylamino)-4-(m-tolylamino)-6,7-dihydro-5H-pyrrolo[3,4-c]pyrimidin-5-one], the IC50 was 1.26 µM.

Take `Cc1cccc(Nc2nc(NCC(N)=O)nc3c2C(=O)NC3)c1` [Example 42, 2-(5-oxo-4-(m-tolylamino)-6,7-dihydro-5H-pyrrolo[3,4-d]pyrimidin-2-ylamino)acetamide]: the IC50 is 0.158 µM.

Consider `Cc1cccc(Nc2nc(N(C)CCN)nc3c2C(=O)NC3)c1` [Example 43, 2-((2-Aminoethyl)(methyl)amino)-4-(m-tolylamino)-6,7-dihydro-5H-pyrrolo[3,4-d]pyrimidin-5-one], for which the IC50 is 5.01 µM.

As to `Cc1cccc(Nc2nc(NCC3CCCN3)nc3c2C(=O)NC3)c1` (stereo not drawn) [Example 44, 2-(Pyrrolidin-2-ylmethylamino)-4-(m-tolylamino)-6,7-dihydro-5H-pyrrolo[3,4-d]pyrimidin-5-one], the IC50 was 0.631 µM.

Consider `Cc1cccc(Nc2nc(N3CCC(N)C3)nc3c2C(=O)NC3)c1` (stereo not drawn) [Example 45, 2-(3-Aminopyrrolidin-1-yl)-4-(m-tolylamino)-6,7-dihydro-5H-pyrrolo[3,4-d]pyrimidin-5-one], for which the IC50 is 0.794 µM.

For the compound `Cc1c(-c2nc(N[C@@H]3CCCC[C@@H]3N)nc3c2C(=O)NC3)cnn1C` [Example 46, 2-((1R,2S)-2-Aminocyclohexylamino)-4-(1,5-dimethyl-1H-pyrazol-4-yl)-6,7-dihydro-5H-pyrrolo[3,4-d]pyrimidin-5-one], the IC50 is 1.58 µM.

In the case of `N[C@H]1CCCC[C@H]1Nc1nc2c(c(-c3cc4ccccc4[nH]3)n1)C(=O)NC2` [Example 47, 2-((1R,2S)-2-Aminocyclohexylamino)-4-(1H-indol-2-yl)-6,7-dihydro-5H-pyrrolo[3,4-c]pyrimidin-5-one], the IC50 was 0.00251 µM.

In the case of `N[C@H]1CCCC[C@H]1Nc1nc2c(c(-c3ccn[nH]3)n1)C(=O)NC2` [Example 48, 2-((1R,2S)-2-Aminocyclohexylamino)-4-(1H-pyrazol-5-yl)-6,7-dihydro-5H-pyrrolo[3,4-c]pyrimidin-5-one], the IC50 was 0.794 µM.

In the case of `Cc1cccc(Nc2nc(CCCN)nc3c2C(=O)NC3)c1` [Example 49, 2-(3-Aminopropyl)-4-(m-tolylamino)-6,7-dihydro-5H-pyrrolo[3,4-d]pyrimidin-5-one], the IC50 was > 20 µM.

With `N[C@H]1CCCC[C@H]1Nc1nc(-c2coc3ccccc23)c2c(c1F)CNC2=O` [Example 50, 6-((1R,2S)-2-Aminocyclohexylamino)-4-(benzofuran-3-yl)-7-fluoro-1H-pyrrolo[3,4-c]pyridin-3(2H)-one], the IC50 is 0.00251 µM.

Take `N[C@H]1CCCC[C@H]1Nc1nc(-c2cnc3ccccn23)c2c(c1F)CNC2=O` [Example 51, 6-((1R,2S)-2-aminocyclohexylamino)-7-fluoro-4-(imidazo[1,2-a]pyridin-3-yl)-1H-pyrrolo[3,4-c]pyridin-3(2H)-one]: the IC50 was 0.0631 µM.

Regarding `N[C@H]1CCCC[C@H]1Nc1nc(-c2csc3ccccc23)c2c(c1F)CNC2=O` [Example 52, 6-((1R,2S)-2-aminocyclohexylamino)-4-(benzo[b]thiophen-3-yl)-7-fluoro-1H-pyrrolo[3,4-c]pyridin-3(2H)-one], the IC50 was 0.0631 µM.

For `CCOC[C@H](N)CNc1cc2c(c(Nc3cccc(C)c3)n1)C(=O)NC2` [Example 54, (R)-6-(2-Amino-3-ethoxypropylamino)-4-(m-tolylamino)-1H-pyrrolo[3,4-c]pyridin-3(2H)-one], the IC50 was 0.251 µM.

As to `CCOC[C@H](N)CNc1nc(Nc2cccc(C)c2)c2c(c1F)CNC2=O` [Example 55, (R)-6-(2-Amino-3-ethoxypropylamino)-7-fluoro-4-(m-tolylamino)-1H-pyrrolo[3,4-c]pyridin-3(2H)-one], the IC50 is 0.0158 µM.

As to `Cc1cccc(Nc2nc(NCC(N)C(F)(F)F)cc3c2C(=O)NC3)c1` (stereo not drawn) [Example 56, 6-(2-Amino-3,3,3-trifluoropropylamino)-4-(m-tolylamino)-1H-pyrrolo[3,4-c]pyridin-3(2H)-one], the IC50 was 2.51 µM.

As to `Cc1cccc(Nc2nc(N[C@H](CC(C)C)C(N)=O)cc3c2C(=O)NC3)c1` [Example 57, (R)-4-Methyl-2-(3-oxo-4-(m-tolylamino)-2,3-dihydro-1H-pyrrolo[3,4-c]pyridin-6-ylamino)pentanamide], the IC50 was 0.0158 µM.

Regarding `CCn1cc(-c2nc(N[C@@H]3CCCC[C@@H]3N)cc3c2C(=O)NC3)cn1` [Example 59, 6-((1R,2S)-2-Aminocyclohexylamino)-4-(1-ethyl-1H-pyrazol-4-yl)-1H-pyrrolo[3,4-c]pyridin-3(2H)-one], the IC50 is 0.0794 µM.

In the case of `CCn1cc(-c2nc(N[C@@H]3CCCC[C@@H]3N)c(F)c3c2C(=O)NC3)cn1` [Example 60, 6-((1R,2S)-2-Aminocyclohexylamino)-4-(1-ethyl-1H-pyrazol-4-yl)-7-fluoro-1H-pyrrolo[3,4-c]pyridin-3(2H)-one], the IC50 is 0.0158 µM.

For the compound `N[C@H]1CCCC[C@H]1Nc1cc2c(c(-c3cnn(C4CC4)c3)n1)C(=O)NC2` [Example 61], the IC50 was 0.0631 µM.

As to `N[C@H]1CCCC[C@H]1Nc1nc(-c2cnn(C(F)F)c2)c2c(c1F)CNC2=O` [Example 62, 6-((1R,2S)-2-Aminocyclohexylamino)-4-(1-(difluoromethyl)-1H-pyrazol-4-yl)-7-fluoro-1H-pyrrolo[3,4-c]pyridin-3(2H)-one], the IC50 was 0.01 µM.

Consider `N[C@H]1CCCC[C@H]1Nc1nc(-c2cnn(C3CC3)c2)c2c(c1F)CNC2=O` [Example 63, 6-((1R,2S)-2-Aminocyclohexylamino)-4-(1-cyclopropyl-1H-pyrazol-4-yl)-7-fluoro-1H-pyrrolo[3,4-c]pyridin-3(2H)-one], for which the IC50 is 0.00794 µM.

`Cn1cc(-c2nc(N[C@@H]3CCOC[C@@H]3N)c(F)c3c2C(=O)NC3)cn1` [Example 65, 6-((3R,4R)-3-Aminotetrahydro-2H-pyran-4-ylamino)-7-fluoro-4-(1-methyl-1H-pyrazol-4-yl)-1H-pyrrolo[3,4-c]pyridin-3(2H)-one]: the IC50 is 0.01 µM.

In the case of `CC(C)C[C@@H](Nc1nc(-c2cnn(C)c2)c2c(c1F)CNC2=O)C(N)=O` [Example 70, (R)-2-(7-Fluoro-4-(1-methyl-1H-pyrazol-4-yl)-3-oxo-2,3-dihydro-1H-pyrrolo[3,4-c]pyridin-6-ylamino)-4-methylpentanamide], the IC50 was 0.00158 µM.

Regarding `CC(C)C[C@@H](Nc1nc(-c2cnn(C(F)F)c2)c2c(c1F)CNC2=O)C(N)=O` [Example 71, (R)-2-(4-(1-(Difluoromethyl)-1H-pyrazol-4-yl)-7-fluoro-3-oxo-2,3-dihydro-1H-pyrrolo[3,4-c]pyridin-6-ylamino)-4-methylpentanamide], the IC50 is 0.00794 µM.

For `CC(C)C[C@@H](Nc1nc(-c2cnn(C3CC3)c2)c2c(c1F)CNC2=O)C(N)=O` [Example 72, (R)-2-(4-(1-Cyclopropyl-1H-pyrazol-4-yl)-7-fluoro-3-oxo-2,3-dihydro-1H-pyrrolo[3,4-c]pyridin-6-ylamino)-4-methylpentanamide], the IC50 was 0.0316 µM.

For the compound `CC(C)C[C@@H](Nc1nc(-c2coc3ccccc23)c2c(c1F)CNC2=O)C(N)=O` [Example 73, (R)-2-(4-(Benzofuran-3-yl)-7-fluoro-3-oxo-2,3-dihydro-1H-pyrrolo[3,4-c]pyridin-6-ylamino)-4-methylpentanamide], the IC50 is 0.00794 µM.

Regarding `CC(C)C[C@@H](Nc1nc(-c2cnn3ccccc23)c2c(c1F)CNC2=O)C(N)=O` [Example 74, (R)-2-(7-Fluoro-3-oxo-4-(pyrazolo[1,5-a]pyridin-3-yl)-2,3-dihydro-1H-pyrrolo[3,4-c]pyridin-6-ylamino)-4-methylpentanamide], the IC50 was 0.00501 µM.

On to `COC[C@H](N)CNc1cc2c(c(Nc3cccc(C)c3)n1)C(=O)NC2` [Example 77, (R)-6-(2-Amino-3-methoxypropylamino)-4-(m-tolylamino)-1H-pyrrolo[3,4-c]pyridin-3(2H)-one], for which the IC50 was 0.0316 µM.

As for `COC[C@H](N)CNc1nc(Nc2cccc(C)c2)c2c(c1C#N)CNC2=O` [Example 78, (R)-6-(2-Amino-3-methoxypropylamino)-3-oxo-4-(m-tolylamino)-2,3-dihydro-1H-pyrrolo[3,4-c]pyridine-7-carbonitrile], the IC50 is 0.00398 µM.

As to `COC[C@H](N)CNc1nc(Nc2cccc(C)c2)c2c(c1F)CNC2=O` [Example 79, (R)-6-(2-Amino-3-methoxypropylamino)-7-fluoro-4-(m-tolylamino)-1H-pyrrolo[3,4-c]pyridin-3(2H)-one], the IC50 was 0.02 µM.

`C=CC(=O)c1c(N[C@@H]2CCCC[C@@H]2N)nc(Nc2cccc(C)c2)c2c1CNC2=O` [Example 80, 7-Acryloyl-6-((1R,2S)-2-aminocyclohexylamino)-4-(m-tolylamino)-1H-pyrrolo[3,4-c]pyridin-3(2H)-one]: the IC50 was 3.16 µM.

On to `Cc1cccc(Nc2nc(N[C@@H]3CCCC[C@@H]3N)c(I)c3c2C(=O)NC3)c1` [Example 81, 6-((1R,2S)-2-Aminocyclohexylamino)-7-iodo-4-(m-tolylamino)-1H-pyrrolo[3,4-c]pyridin-3(2H)-one], for which the IC50 is 0.00316 µM.
